Read-outs that look alike come from different tables or passages of the source.
What was measured:
CDK5/p25NCK = CDK5/p25NCK (Homo sapiens, UniProt Q00535); assay: CDK family single point inhibition assay; assay type: biochemical; conditions: Km ATP
CDK1/CycB1 = CDK1/CycB1 (Homo sapiens, UniProt P06493); assay: CDK family single point inhibition assay; assay type: biochemical; conditions: Km ATP
CDK4/CycD3 = CDK4/CycD3 (Homo sapiens, UniProt P11802); assay: CDK family single point inhibition assay; assay type: biochemical; conditions: Km ATP
Chain of CDK4/CycD3 (P11802 whole entry): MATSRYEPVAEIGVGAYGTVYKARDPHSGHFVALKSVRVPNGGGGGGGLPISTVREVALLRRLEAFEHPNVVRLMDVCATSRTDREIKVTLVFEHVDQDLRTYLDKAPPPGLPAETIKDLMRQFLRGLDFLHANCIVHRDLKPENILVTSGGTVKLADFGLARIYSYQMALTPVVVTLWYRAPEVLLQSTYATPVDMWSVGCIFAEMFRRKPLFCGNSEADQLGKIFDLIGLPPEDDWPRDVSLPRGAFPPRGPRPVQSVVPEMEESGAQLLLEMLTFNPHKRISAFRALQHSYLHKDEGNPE
Chain of CDK4/CycD3 (P30281 whole entry partner): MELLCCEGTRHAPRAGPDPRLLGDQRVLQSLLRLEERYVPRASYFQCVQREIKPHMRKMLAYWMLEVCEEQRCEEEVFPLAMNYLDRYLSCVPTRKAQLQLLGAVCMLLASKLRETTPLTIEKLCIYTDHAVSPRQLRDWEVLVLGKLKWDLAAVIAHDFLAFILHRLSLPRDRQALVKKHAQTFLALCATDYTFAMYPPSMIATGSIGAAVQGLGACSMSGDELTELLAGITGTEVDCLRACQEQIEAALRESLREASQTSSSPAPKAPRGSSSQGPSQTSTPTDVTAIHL

ME-1 = assay: Extended viability test (AlamarBlue); assay type: cell-based; conditions: extended viability assay
EGR1 and FOS mRNA = assay: Serum-induced immediate early response gene expression in HCT-116 cells (qRT-PCR); assay type: cell-based; conditions: quiescent HCT-116 cells, 2 hours with 1 μM, then FBS time-course
Procedure: (B) SEL120-34A inhibits IFN-dependent phosphorylation of STAT1 S727. HCT-116 cells stimulated with IFNg for 4 h were treated with increasing doses of SEL120-34A, Flavopiridol (F) or vehicle DMSO (C) to determine changes in the phosphorylation of STAT1 S727 and Y701, as measured by WB. (*) unspecific band. (C) SEL120-34A inhibits serine phosphorylation of STAT1 S727 and STAT5 S726, whereas Ruxolitinib inhibits tyrosine phosphorylation of STAT1 Y701 and STAT5 Y694 in JAK2 V617F cells. SET-2 cells were treated with Ruxolitinib, SEL120-34A or vehicle DMSO (C) for 24 hours and protein levels of pS727, pY701 STAT1 and pS726, pY694 STAT5 were measured by WB. […]
[…]

Chain of CDK1/CycB1 (P06493 whole entry): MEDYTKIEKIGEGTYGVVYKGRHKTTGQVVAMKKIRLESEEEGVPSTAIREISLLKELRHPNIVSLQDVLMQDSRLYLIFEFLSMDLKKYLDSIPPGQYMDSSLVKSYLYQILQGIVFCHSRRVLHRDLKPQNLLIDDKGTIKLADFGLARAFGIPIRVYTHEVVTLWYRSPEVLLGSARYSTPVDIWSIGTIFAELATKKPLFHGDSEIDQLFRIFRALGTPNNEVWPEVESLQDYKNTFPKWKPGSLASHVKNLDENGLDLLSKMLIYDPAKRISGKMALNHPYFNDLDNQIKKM
Chain of CDK1/CycB1 (P14635 whole entry partner): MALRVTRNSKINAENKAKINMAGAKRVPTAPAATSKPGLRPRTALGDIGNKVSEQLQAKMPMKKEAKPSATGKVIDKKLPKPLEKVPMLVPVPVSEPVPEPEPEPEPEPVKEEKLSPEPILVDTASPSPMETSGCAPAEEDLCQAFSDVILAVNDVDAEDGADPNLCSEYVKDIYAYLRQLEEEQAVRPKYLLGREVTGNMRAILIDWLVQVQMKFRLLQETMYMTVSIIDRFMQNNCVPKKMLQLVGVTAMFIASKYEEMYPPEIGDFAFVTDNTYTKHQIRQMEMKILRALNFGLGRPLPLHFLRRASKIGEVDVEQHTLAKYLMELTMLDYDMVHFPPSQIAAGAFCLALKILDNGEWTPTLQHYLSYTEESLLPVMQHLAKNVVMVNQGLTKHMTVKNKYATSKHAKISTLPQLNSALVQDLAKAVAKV
Chain of CDK5/p25NCK (Q00535 whole entry): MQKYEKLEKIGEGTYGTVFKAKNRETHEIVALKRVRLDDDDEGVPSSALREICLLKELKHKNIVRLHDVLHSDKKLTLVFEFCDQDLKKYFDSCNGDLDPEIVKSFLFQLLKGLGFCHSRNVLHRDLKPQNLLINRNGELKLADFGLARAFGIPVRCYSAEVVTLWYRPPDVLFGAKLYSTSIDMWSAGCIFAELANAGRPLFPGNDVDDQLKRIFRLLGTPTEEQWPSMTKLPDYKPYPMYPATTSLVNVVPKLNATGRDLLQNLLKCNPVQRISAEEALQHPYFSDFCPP
Chain of CDK5/p25NCK (Q15078 99-307 partner): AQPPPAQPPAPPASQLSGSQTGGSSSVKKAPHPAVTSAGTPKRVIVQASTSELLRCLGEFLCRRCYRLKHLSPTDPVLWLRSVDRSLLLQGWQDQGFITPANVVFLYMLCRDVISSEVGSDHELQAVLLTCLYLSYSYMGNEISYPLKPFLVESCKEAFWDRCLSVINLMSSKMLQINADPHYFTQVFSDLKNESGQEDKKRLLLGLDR

For `Cc1c(Br)c(Br)c2c3c1nc(N1CCNCC1)n3CCC2` [SEL120-34A], the remaining activity at 1 µM (CDK5/p25NCK; mean, read-out: % remaining activity @1μM CDK5/p25NCK Mean) was 80%, the remaining activity at 1 µM (CDK5/p25NCK; repeat 1, read-out: % remaining activity @1μM CDK5/p25NCK repeat 1) was 82% and the remaining activity at 1 µM (CDK5/p25NCK; repeat 2, read-out: % remaining activity @1μM CDK5/p25NCK repeat 2) was 78%. It also gave a remaining activity at 1 µM (CDK1/CycB1; mean, read-out: % remaining activity @1μM CDK1/CycB1 Mean) of 88%, a remaining activity at 1 µM (CDK1/CycB1; repeat 1, read-out: % remaining activity @1μM CDK1/CycB1 repeat 1) of 87% and a remaining activity at 1 µM (CDK1/CycB1; repeat 2, read-out: % remaining activity @1μM CDK1/CycB1 repeat 2) of 89%. For the same compound, the remaining activity at 1 µM (CDK4/CycD3; mean, read-out: % remaining activity @1μM CDK4/CycD3 Mean) was 91%, the remaining activity at 1 µM (CDK4/CycD3; repeat 1, read-out: % remaining activity @1μM CDK4/CycD3 repeat 1) was 92% and the remaining activity at 1 µM (CDK4/CycD3; repeat 2, read-out: % remaining activity @1μM CDK4/CycD3 repeat 2) was 91%. The GI50 (ME-1) was 120 nM and the “inducible expression of IER genes EGR1 and FOS” value (EGR1 and FOS mRNA) was “substantially repressed”.

From PMC5464911, “SEL120-34A is a novel CDK8 inhibitor active in AML cells with high levels of serine phosphorylation of STAT1 and STAT5 transactivation domains” (Oncotarget, 2017)
